In patent US20250098679A1, “HERBICIDAL PYRIDONE DERIVATIVES” (SYNGENTA CROP PROTECTION AG, priority 2021, published 2025):

What was measured:
Assay type in all cases: in vivo
Details in all cases: evaluated after 13 days
[1] = tested on: Amaranthus retoflexus (AMARE); test: Pre-emergence Test, Amaranthus retoflexus (AMARE)
[2] = tested on: Echinochloa crus-galli (ECHCG); test: Post-emergence Test, Echinochloa crus-galli (ECHCG); parameters: key to percentage damage caused to the plant, ECHCG (five-point scale): 5=81-100%, 4=61-80%, 3=41-60%, 2=21-40%, 1=0-20% damage
Summary of the method: (§1)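 Scores are percentage plant damage on a 1–5 scale (1=0-20%, 2=21-40%, 3=41-60%, 4=61-80%, 5=81-100%), read 13 days after treatment. Pots received a spray at 1000 g/ha unless otherwise stated, formulated in acetone/water (50:50) containing 0.5% Tween 20.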

[3] = tested on: Ipomoea hederacea (IPOHE); test: Post-emergence Test, Ipomoea hederacea (IPOHE); parameters: key to percentage damage caused to the plant, IPOHE (five-point scale): 5=81-100%, 4=61-80%, 3=41-60%, 2=21-40%, 1=0-20% damage
Summary of the method: as §1

Zea mays (ZEAMX) [4] = test: Post-emergence Test, Zea mays (ZEAMX); parameters: key to percentage damage caused to the plant, ZEAMX (five-point scale): 5=81-100%, 4=61-80%, 3=41-60%, 2=21-40%, 1=0-20% damage
Summary of the method: as §1

[5] = tested on: Amaranthus retoflexus (AMARE); test: Post-emergence Test, Amaranthus retoflexus (AMARE); parameters: key to percentage damage caused to the plant, AMARE (five-point scale): 5=81-100%, 4=61-80%, 3=41-60%, 2=21-40%, 1=0-20% damage
Summary of the method: as §1

[6] = tested on: Amaranthus palmeri (AMAPA); test: Pre-emergence Test, Amaranthus palmeri (AMAPA)
Setaria faberi (SETFA) [7] = test: Post-emergence Test, Setaria faberi (SETFA); parameters: key to percentage damage caused to the plant, SETFA (five-point scale): 5=81-100%, 4=61-80%, 3=41-60%, 2=21-40%, 1=0-20% damage
Summary of the method: as §1

Setaria faberi (SETFA) [8] = test: Pre-emergence Test, Setaria faberi (SETFA)
[9] = tested on: Echinochloa crus-galli (ECHCG); test: Pre-emergence Test, Echinochloa crus-galli (ECHCG)
[10] = tested on: Amaranthus palmeri (AMAPA); test: Post-emergence Test, Amaranthus palmeri (AMAPA); parameters: key: 5=81-100%, 4=61-80%, 3=41-60%, 2=21-40%, 1=0-20% damage
Summary of the method: as §1

Zea mays (ZEAMX) [11] = test: Pre-emergence Test, Zea mays (ZEAMX)
[12] = tested on: Ipomoea hederacea (IPOHE); test: Pre-emergence Test, Ipomoea hederacea (IPOHE)

Compound	Pre-emergence Test AMARE, percentage damage caused to the plant (five-point scale) ([1]; 1000 g/ha)	percentage damage caused to the plant, ECHCG (five-point scale) ([2]; 250 g/Ha)	percentage damage caused to the plant, ECHCG (five-point scale) ([2]; 1000 g/ha)	percentage damage caused to the plant, IPOHE (five-point scale) ([3]; 250 g/Ha)	percentage damage caused to the plant, IPOHE (five-point scale) ([3]; 1000 g/ha)	percentage damage caused to the plant, ZEAMX (five-point scale) (Zea mays (ZEAMX) [4]; 250 g/Ha)	percentage damage caused to the plant, ZEAMX (five-point scale) (Zea mays (ZEAMX) [4]; 1000 g/ha)	percentage damage caused to the plant, AMARE (five-point scale) ([5]; 250 g/Ha)	percentage damage caused to the plant, AMARE (five-point scale) ([5]; 1000 g/ha)	Pre-emergence Test AMAPA, percentage damage caused to the plant (five-point scale) ([6]; 1000 g/ha)	percentage damage caused to the plant, SETFA (five-point scale) (Setaria faberi (SETFA) [7]; 250 g/Ha)	percentage damage caused to the plant, SETFA (five-point scale) (Setaria faberi (SETFA) [7]; 1000 g/ha)	Pre-emergence Test SETFA, percentage damage caused to the plant (five-point scale) (Setaria faberi (SETFA) [8]; 1000 g/ha)	Pre-emergence Test ECHCG, percentage damage caused to the plant (five-point scale) ([9]; 1000 g/ha)	percentage damage caused to the plant, AMAPA (five-point scale) ([10]; 250 g/Ha)	percentage damage caused to the plant, AMAPA (five-point scale) ([10]; 1000 g/ha)	Pre-emergence Test ZEAMX, percentage damage caused to the plant (five-point scale) (Zea mays (ZEAMX) [11]; 1000 g/ha)	Pre-emergence Test IPOHE, percentage damage caused to the plant (five-point scale) ([12]; 1000 g/ha)	also measured
CCn1c(Cn2cc(C(C)=O)c(C)n2)cc(=O)c(C(=O)O)c1-c1ccc(Cl)c(Cl)c1 [Compound 100, 6-[(4-acetyl-3-methyl-pyrazol-1-yl)methyl]-2-(3,4-dichlorophenyl)-1-ethyl-4-oxo-pyridine-3-carboxylic acid]	2 (2=21-40%)	3 (3=41-60%)	2 (2=21-40%)	0	3 (3=41-60%)	0	1 (1=0-20%)	0	2 (2=21-40%)	2 (2=21-40%)	0	2 (2=21-40%)	1 (1=0-20%)	0	0	2 (2=21-40%)	0	2 (2=21-40%)	
CCn1c(Cn2nccn2)cc(=O)c(C(=O)O)c1-c1ccc(Cl)c(Cl)c1 [Compound 48, 2-(3,4-dichlorophenyl)-1-ethyl-4-oxo-6-(triazol-2-ylmethyl)pyridine-3-carboxylic acid]	0	3 (3=41-60%)	5 (5=81-100%)	4 (4=61-80%)	2 (2=21-40%)	0	3 (3=41-60%)	1 (1=0-20%)	0	1 (1=0-20%)	4 (4=61-80%)	4 (4=61-80%)	5 (5=81-100%)	5 (5=81-100%)	1 (1=0-20%)	3 (3=41-60%)	0	0	
CCn1c(Cn2nc(C)cc2C)cc(=O)c(C(=O)O)c1-c1ccc(Cl)c(Cl)c1 [Compound 39, 2-(3,4-dichlorophenyl)-6-[(3,5-dimethylpyrazol-1-yl)methyl]-1-ethyl-4-oxo-pyridine-3-carboxylic acid]	1 (1=0-20%)	3 (3=41-60%)	4 (4=61-80%)	2 (2=21-40%)	2 (2=21-40%)	0	4 (4=61-80%)	2 (2=21-40%)	2 (2=21-40%)	1 (1=0-20%)	1 (1=0-20%)	4 (4=61-80%)	3 (3=41-60%)	4 (4=61-80%)	1 (1=0-20%)	2 (2=21-40%)	0	2 (2=21-40%)	
CCOc1cc(C(F)(F)F)nn1Cc1cc(=O)c(C(=O)O)c(-c2ccc(Cl)c(Cl)c2)n1CC [Compound 148, 2-(3,4-dichlorophenyl)-6-[[5-ethoxy-3-(trifluoromethyl)pyrazol-1-yl]methyl]-1-ethyl-4-oxo-pyridine-3-carboxylic acid]	0	2 (2=21-40%)	4 (4=61-80%)	2 (2=21-40%)	2 (2=21-40%)	1 (1=0-20%)	2 (2=21-40%)	1 (1=0-20%)	3 (3=41-60%)	1 (1=0-20%)	3 (3=41-60%)	4 (4=61-80%)	5 (5=81-100%)	2 (2=21-40%)	1 (1=0-20%)	3 (3=41-60%)	0	2 (2=21-40%)	Pre-emergence Test AMARE, percentage damage caused to the plant (five-point scale) ([1]; 250 g/Ha (*)): 0; Pre-emergence Test AMAPA, percentage damage caused to the plant (five-point scale) ([6]; 250 g/Ha (*)): 0; Pre-emergence Test SETFA, percentage damage caused to the plant (five-point scale) (Setaria faberi (SETFA) [8]; 250 g/Ha (*)): 2 (2=21-40%); Pre-emergence Test ECHCG, percentage damage caused to the plant (five-point scale) ([9]; 250 g/Ha (*)): 0; Pre-emergence Test ZEAMX, percentage damage caused to the plant (five-point scale) (Zea mays (ZEAMX) [11]; 250 g/Ha (*)): 0; Pre-emergence Test IPOHE, percentage damage caused to the plant (five-point scale) ([12]; 250 g/Ha (*)): 0
CCOC(=O)c1c(-c2ccc(Cl)c(Cl)c2)n(CC)c(Cn2cc(F)cn2)cc1=O [Compound 8, ethyl 2-(3,4-dichlorophenyl)-1-ethyl-6-[(4-fluoropyrazol-1-yl)methyl]-4-oxo-pyridine-3-carboxylate]	0		1 (1=0-20%)		1 (1=0-20%)		1 (1=0-20%)		1 (1=0-20%)	0		4 (4=61-80%)	1 (1=0-20%)	3 (3=41-60%)		1 (1=0-20%)	0	1 (1=0-20%)	
